Experiment [1] deals with A549 (Lung cancer cell). Nature of the experiment: MTT cytotoxicity assay, A549. It is filed as cell-based. Particulars: Homo sapiens; 24-hour MTT, A549 cell line; read-out: IC50 against A549. The procedure: (§1) Cytotoxicity studies were carried out using the MTT method, based on the principle of forming purple formazan salt. The MTT procedure was performed using a CO2 incubator during a 24-hour incubation period, as described in our previous publications. The results were detected with a microplate reader.
(§2) For activity studies, the 24-hour MTT procedure was applied. A549 (Lung cancer cell) (ATCC-CRM-CCL-185), MCF-7 (breast cancer cell) (ATCC-HTB-22), and NIH3T3 (normal fibroblast cell) (ATCC-CRL-1658) were used. Looking at the activity results, compound 4d is promising. […] The value shown against the MCF-7 cell line is especially important. Therefore, compound 4d was subjected to the aromatase enzyme inhibition test in vitro. When the structure of compound 4d was examined, unlike other compounds, it carried a nitro substitution in the fourth position of the phenyl ring.
On the technique in general: Tetrazolium assays rely on reduction of a dye to a coloured formazan, in cell work by metabolically active cells.

The test system of experiment [2] is NIH3T3 (normal fibroblast cell). Nature of the experiment: MTT cytotoxicity assay, NIH3T3 healthy cell line. It is filed as cell-based. The note with it: Mus musculus, 24-hour MTT, read-out: IC50 against NIH3T3. The procedure: as §1, §2
Experiment [3] deals with MCF-7 (breast cancer cell). Nature of the experiment: MTT cytotoxicity assay, MCF-7. The class given is cell-based. Particulars: Homo sapiens, MCF7; 24-hour MTT, MCF-7 cell line; read-out: IC50 against MCF-7. The method, then:
as §1, §2

The target of experiment [4] is T1, Aromatase (CYP19A) (Homo sapiens, UniProt P11511).
T1 construct: purchased BioVision
T1 sequence (P11511 1-503): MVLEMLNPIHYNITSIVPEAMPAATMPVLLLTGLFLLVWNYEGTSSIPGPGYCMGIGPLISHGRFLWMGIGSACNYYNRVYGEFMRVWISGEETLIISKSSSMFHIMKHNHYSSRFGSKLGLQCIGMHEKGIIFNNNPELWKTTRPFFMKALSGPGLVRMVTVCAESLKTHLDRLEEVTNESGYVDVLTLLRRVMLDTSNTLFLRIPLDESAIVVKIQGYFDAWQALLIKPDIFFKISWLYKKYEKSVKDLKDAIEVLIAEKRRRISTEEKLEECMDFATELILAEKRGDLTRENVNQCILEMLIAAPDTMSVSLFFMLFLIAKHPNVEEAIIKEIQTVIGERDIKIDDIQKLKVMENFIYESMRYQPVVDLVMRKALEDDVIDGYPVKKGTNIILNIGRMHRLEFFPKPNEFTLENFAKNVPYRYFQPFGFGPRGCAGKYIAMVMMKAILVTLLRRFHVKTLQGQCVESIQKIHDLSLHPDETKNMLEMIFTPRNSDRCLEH
Nature of the experiment: Aromatase (CYP19A) inhibitor screening kit (fluorometric). The class given is biochemical. The note with it: read-out: IC50 aromatase enzyme inhibition. The procedure:
In the experiment performed according to the kit procedure, IC50 values of the compound were calculated from the results obtained with the help of a microplate reader (BioVision, Aromatase (CYP19A) Inhibitor Screening Kit (Fluorometric)).

For experiment [5], the system named is DNA synthesis. Nature of the experiment: BrdU analysis (DNA synthesis inhibition). The class given is cell-based. The procedure:
Three different incubation periods were selected for the experiment, which was carried out according to the kit procedure. (BioVision, BrdU Cell Proliferation Assay Kit (Fluorometric)). Test results performed at 24-hour, 48-hour, and 72-hour periods were based on fluorimetric measurement of the color change caused by the addition of the stop solution. It enables us to find out where the anticancer effect of anticancer compounds originates from. In other words, the following question persists: by affecting which phase in the cell cycle is DNA synthesis inhibited? BrdU analysis is important to find the answer to this question.
With the Brdu studies, the potential of compound 4d to inhibit DNA synthesis was examined in 24-, 48- and 72-hour periods. […] Since DNA synthesis occurs in the […] of the cell cycle, it would be a correct approach to say that the compounds affect the G2 phase.

Drawing on publication PMC12606616, “Synthesis, Characterization, and In Vitro and In Silico Studies of New Triazole Derivatives as Aromatase Inhibitors” (Medicinal Chemistry (Shariqah (United Arab Emirates), 2024), this text covers IC50 and DNA synthesis inhibition for four compounds.

Where only a bound is given, the exact number is not on record here.

A word on the IC50: it is the point on the concentration scale where inhibition reaches its midpoint. Turning to `CCn1c(SCC(=O)c2ccc(C)cc2C)nnc1-c1[nH]cnc1C` [Compound 4h], the IC50 is 17.2 µM in experiment [1], 27.2 µM in experiment [2] and above 100 µM in experiment [3].

With `CCn1c(SCC(=O)c2ccc([N+](=O)[O-])cc2)nnc1-c1nc[nH]c1C` [Compound 4d, 2-((4-ethyl-5-(5-methyl-1H-imidazol-4-yl)-4H-1,2,4-triazol-3-yl)thio)-1-(4-nitrophenyl) ethan-1-one], the IC50 in experiment [1] worked out at 17.2 µM; in experiment [4] it was 0.097 µM; in experiment [2], 13.2 µM; in experiment [3] it was 6.73 µM. Besides, the DNA synthesis inhibition is listed as 63.3% in experiment [5] (24-hour incubation, 2xIC50 dose); 16.1% in experiment [5] (24-hour incubation, IC50/2 dose); 28.1% in experiment [5] (24-hour incubation, IC50 dose); 79.0% in experiment [5] (48-hour incubation, 2xIC50 dose); 40.4% in experiment [5] (48-hour incubation, IC50/2 dose); 77.5% in experiment [5] (48-hour incubation, IC50 dose). Moreover, the DNA synthesis inhibition in experiment [5] (72-hour incubation, 2xIC50 dose) is 92.4%; in experiment [5] (72-hour incubation, IC50/2 dose), 77.8%; in experiment [5] (72-hour incubation, IC50 dose) it was 80.6%.

For the compound `CCn1c(SCC(=O)c2ccc(Cl)cc2Cl)nnc1-c1[nH]cnc1C` [Compound 4j], the IC50 in experiment [1] stood at 66.1 µM; in experiment [2] it was 18.4 µM; in experiment [3] it was 28.9 µM.

Consider `CCn1c(SCC(=O)c2ccc(F)cc2F)nnc1-c1[nH]cnc1C` [Compound 4i], for which the IC50 was 86.2 µM in experiment [1], 27.2 µM in experiment [2] and 64.4 µM in experiment [3].
